Kd data for eight compounds are collected here from ChEMBL document CHEMBL3991601, “The target landscape of clinical kinase drugs” (Science, 2017).

Where a name gives a salt, the structure may show the parent alone. Calls of active or inactive are those of the source. A value given as a limit tells only on which side of the number the result lay.

Experiment [1] concerns the target Tyrosine-protein kinase ABL2 (Homo sapiens, UniProt P42684).
Experiment [2] addresses Bone morphogenetic protein receptor type-1B (Homo sapiens, UniProt O00238).
In experiment [3] the target is Rho-associated protein kinase 2 (Homo sapiens, UniProt O75116).
For experiment [4], the target named is Mitogen-activated protein kinase kinase kinase kinase 1 (Homo sapiens, UniProt Q92918).
For experiment [5], the target named is Casein kinase I isoform gamma-1 (Homo sapiens, UniProt Q9HCP0).
Experiment [6] has as its target Serine/threonine-protein kinase/endoribonuclease IRE2 (Homo sapiens, UniProt Q76MJ5).
Experiment [7] addresses Chromodomain-helicase-DNA-binding protein 4 (Homo sapiens, UniProt Q14839).
Experiment [8] has as its target T1, Mitogen-activated protein kinase kinase kinase 2 (Homo sapiens, UniProt Q9Y2U5).
T1 sequence (Q9Y2U5 whole entry): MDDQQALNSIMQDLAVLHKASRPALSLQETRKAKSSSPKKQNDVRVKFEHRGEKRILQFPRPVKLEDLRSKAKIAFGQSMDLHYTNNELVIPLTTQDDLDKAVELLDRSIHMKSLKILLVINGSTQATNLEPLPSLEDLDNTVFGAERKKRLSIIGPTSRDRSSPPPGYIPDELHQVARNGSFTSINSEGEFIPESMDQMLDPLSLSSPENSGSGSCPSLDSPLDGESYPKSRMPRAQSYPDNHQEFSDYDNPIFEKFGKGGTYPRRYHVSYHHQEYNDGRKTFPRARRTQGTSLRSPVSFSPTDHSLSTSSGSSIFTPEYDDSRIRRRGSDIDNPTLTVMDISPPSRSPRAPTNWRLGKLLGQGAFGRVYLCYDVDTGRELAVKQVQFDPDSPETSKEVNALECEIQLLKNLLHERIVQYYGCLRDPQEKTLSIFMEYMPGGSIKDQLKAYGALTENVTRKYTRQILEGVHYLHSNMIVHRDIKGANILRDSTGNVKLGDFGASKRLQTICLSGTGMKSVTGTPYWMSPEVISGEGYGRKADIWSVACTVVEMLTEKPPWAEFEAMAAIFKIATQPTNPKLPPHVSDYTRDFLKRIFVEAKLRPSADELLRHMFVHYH

Experiment [9] deals with T2, Membrane-associated tyrosine- and threonine-specific cdc2-inhibitory kinase (Homo sapiens, UniProt Q99640).
T2 sequence (Q99640 whole entry): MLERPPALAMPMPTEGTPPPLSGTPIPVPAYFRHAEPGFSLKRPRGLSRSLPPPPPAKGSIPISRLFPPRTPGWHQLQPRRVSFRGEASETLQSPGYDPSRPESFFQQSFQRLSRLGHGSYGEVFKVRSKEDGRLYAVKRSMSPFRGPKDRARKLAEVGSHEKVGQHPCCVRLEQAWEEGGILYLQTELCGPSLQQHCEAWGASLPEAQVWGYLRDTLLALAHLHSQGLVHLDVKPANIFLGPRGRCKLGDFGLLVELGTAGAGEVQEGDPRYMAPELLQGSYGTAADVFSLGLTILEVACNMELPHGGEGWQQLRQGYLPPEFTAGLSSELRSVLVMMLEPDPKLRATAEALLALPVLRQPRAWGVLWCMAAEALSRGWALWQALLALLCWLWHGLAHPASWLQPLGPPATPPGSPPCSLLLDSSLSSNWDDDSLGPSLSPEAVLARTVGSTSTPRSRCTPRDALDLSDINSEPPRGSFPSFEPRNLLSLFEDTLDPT

For experiment [10], the target named is RAC-alpha serine/threonine-protein kinase (Homo sapiens, UniProt P31749).
Experiment [11] deals with T3, Glycogen phosphorylase, brain form (Homo sapiens, UniProt P11216).
T3 sequence (P11216 whole entry): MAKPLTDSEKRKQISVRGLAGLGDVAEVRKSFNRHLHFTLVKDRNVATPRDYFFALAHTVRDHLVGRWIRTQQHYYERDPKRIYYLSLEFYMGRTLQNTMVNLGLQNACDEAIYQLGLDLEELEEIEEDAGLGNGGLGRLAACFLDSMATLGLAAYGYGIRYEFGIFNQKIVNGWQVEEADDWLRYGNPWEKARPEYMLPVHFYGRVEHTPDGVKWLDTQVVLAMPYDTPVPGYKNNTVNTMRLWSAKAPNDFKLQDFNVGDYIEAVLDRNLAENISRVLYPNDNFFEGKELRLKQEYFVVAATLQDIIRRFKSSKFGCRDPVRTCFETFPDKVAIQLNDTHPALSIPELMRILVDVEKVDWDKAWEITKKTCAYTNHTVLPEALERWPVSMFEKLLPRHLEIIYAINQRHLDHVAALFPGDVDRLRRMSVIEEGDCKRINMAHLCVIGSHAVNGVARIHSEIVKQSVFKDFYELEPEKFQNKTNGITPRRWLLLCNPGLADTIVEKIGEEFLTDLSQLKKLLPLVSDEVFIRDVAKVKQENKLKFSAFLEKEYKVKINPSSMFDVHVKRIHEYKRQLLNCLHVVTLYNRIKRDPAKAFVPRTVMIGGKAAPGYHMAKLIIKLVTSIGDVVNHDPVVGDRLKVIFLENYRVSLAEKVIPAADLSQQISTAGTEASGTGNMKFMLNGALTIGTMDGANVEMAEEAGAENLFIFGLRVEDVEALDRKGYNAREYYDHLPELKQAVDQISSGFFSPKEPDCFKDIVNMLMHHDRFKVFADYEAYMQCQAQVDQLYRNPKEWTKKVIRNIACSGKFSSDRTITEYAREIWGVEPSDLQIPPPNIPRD

For experiment [12], the target named is T4, EKC/KEOPS complex subunit TP53RK (Homo sapiens, UniProt Q96S44).
T4 sequence (Q96S44 whole entry): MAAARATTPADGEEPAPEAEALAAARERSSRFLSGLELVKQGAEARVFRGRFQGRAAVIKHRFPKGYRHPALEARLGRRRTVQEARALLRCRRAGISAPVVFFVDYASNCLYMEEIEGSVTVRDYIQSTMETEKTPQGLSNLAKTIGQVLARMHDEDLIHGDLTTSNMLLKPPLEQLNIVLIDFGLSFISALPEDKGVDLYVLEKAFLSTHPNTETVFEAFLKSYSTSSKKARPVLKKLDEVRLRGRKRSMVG

Experiment [13] addresses ATP-dependent RNA helicase DDX3X (Homo sapiens, UniProt O00571).
In another experiment the target is DNA topoisomerase 2-beta (Homo sapiens, UniProt Q02880).
Also: in the data inactive means no Kd found up to 30 µM.

Chain of DNA topoisomerase 2-beta (Q02880 whole entry): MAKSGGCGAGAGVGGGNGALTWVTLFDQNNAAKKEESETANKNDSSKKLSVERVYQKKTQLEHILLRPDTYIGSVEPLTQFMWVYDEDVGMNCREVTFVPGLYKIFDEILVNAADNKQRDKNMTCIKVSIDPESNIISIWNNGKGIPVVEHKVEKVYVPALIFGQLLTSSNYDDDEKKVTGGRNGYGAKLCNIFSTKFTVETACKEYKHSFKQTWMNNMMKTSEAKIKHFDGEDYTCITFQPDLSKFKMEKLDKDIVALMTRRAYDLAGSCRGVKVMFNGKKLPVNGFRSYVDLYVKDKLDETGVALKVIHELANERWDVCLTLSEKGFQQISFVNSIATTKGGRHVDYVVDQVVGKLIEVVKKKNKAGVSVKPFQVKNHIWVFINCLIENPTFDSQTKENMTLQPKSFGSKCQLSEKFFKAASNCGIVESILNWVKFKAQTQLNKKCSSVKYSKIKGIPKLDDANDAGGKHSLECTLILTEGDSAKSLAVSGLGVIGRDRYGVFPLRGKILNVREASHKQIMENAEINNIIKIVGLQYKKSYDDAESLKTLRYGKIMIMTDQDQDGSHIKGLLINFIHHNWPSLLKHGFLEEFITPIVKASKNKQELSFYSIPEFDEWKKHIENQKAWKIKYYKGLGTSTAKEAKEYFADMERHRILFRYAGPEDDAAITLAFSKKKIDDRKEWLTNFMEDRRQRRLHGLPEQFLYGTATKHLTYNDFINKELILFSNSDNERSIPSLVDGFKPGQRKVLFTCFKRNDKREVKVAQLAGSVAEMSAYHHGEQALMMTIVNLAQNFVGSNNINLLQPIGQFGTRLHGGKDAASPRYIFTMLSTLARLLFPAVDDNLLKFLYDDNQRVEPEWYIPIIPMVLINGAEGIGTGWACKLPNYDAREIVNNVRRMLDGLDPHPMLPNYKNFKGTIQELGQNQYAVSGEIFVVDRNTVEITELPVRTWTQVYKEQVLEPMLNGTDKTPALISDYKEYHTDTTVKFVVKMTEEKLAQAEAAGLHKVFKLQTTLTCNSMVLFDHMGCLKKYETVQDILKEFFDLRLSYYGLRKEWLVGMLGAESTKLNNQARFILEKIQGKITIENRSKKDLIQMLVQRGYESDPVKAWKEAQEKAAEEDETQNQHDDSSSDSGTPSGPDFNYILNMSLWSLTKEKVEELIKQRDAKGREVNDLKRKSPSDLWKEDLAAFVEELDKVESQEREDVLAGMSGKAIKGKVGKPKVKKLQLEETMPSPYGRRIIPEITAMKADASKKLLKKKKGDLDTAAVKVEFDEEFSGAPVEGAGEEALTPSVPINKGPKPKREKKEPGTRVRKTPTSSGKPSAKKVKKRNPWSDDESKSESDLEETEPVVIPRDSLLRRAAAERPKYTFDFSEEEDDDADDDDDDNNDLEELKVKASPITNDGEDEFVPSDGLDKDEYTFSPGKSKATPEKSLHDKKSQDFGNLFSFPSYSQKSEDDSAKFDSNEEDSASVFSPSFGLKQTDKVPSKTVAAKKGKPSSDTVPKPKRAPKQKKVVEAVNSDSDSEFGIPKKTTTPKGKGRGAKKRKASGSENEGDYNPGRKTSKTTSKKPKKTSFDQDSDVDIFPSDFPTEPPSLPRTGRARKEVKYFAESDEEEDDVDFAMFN
Chain of ATP-dependent RNA helicase DDX3X (O00571 whole entry): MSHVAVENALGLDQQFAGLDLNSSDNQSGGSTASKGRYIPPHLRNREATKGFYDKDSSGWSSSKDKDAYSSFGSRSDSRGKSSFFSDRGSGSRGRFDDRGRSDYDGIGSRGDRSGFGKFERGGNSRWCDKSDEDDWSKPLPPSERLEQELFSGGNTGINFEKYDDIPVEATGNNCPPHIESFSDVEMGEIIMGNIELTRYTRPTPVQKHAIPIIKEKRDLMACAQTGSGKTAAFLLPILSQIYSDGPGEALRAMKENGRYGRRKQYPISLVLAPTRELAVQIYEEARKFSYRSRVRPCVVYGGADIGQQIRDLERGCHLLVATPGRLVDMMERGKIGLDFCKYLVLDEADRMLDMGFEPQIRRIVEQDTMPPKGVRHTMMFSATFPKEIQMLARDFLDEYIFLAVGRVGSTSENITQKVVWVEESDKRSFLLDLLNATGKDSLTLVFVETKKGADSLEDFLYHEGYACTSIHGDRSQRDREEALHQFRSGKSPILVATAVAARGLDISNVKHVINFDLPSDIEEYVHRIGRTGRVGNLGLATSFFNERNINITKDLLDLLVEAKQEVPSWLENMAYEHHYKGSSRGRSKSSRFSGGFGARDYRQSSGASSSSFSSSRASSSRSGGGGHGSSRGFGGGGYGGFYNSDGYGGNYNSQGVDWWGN
Chain of Chromodomain-helicase-DNA-binding protein 4 (Q14839 whole entry): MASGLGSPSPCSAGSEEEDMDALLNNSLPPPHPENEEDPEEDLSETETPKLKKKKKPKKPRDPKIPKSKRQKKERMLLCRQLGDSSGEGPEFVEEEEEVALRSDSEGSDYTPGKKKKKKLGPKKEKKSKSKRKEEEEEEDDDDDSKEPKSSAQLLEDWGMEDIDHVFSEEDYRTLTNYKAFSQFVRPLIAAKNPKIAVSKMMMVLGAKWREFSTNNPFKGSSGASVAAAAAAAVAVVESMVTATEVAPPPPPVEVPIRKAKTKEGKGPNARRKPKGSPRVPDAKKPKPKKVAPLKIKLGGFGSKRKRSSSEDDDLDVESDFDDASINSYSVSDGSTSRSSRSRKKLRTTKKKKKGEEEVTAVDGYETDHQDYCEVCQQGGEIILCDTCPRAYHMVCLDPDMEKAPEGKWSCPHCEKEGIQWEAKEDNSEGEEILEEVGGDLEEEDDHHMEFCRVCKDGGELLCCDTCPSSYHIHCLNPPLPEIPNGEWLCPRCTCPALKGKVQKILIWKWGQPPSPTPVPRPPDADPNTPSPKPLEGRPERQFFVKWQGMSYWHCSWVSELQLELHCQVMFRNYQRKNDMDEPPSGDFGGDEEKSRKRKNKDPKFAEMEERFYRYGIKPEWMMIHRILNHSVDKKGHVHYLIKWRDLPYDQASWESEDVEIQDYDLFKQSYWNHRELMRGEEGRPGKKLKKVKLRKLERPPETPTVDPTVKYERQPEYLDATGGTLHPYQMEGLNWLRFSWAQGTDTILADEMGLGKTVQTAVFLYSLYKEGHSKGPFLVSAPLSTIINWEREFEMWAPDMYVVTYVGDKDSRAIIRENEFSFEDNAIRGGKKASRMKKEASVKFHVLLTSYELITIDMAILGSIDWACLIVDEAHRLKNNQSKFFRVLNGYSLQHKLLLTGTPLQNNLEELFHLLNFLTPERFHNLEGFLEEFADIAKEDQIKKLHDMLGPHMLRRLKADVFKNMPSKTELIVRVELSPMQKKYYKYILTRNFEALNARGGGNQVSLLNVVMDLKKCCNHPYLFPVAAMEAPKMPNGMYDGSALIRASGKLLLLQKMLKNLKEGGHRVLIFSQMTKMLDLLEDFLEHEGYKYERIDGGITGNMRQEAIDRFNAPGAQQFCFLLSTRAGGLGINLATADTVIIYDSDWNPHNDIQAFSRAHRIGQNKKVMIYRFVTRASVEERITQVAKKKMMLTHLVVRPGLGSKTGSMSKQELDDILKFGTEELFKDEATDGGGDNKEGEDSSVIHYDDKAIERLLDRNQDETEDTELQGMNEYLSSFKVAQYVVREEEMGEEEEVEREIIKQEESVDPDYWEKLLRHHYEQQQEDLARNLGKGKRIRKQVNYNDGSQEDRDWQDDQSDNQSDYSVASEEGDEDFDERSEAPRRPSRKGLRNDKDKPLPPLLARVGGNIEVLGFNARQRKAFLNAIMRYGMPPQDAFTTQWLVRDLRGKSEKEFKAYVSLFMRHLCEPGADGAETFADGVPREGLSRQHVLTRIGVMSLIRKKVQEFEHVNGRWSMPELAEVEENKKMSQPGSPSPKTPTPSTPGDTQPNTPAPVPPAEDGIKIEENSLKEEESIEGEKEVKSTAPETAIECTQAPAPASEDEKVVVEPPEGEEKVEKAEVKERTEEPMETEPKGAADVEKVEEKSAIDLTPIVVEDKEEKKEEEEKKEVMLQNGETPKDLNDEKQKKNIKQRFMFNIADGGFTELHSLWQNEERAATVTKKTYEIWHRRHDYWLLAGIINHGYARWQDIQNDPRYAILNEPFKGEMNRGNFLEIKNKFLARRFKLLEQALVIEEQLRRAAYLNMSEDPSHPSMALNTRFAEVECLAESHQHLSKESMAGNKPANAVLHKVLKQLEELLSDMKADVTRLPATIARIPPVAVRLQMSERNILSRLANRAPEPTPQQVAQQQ
Chain of RAC-alpha serine/threonine-protein kinase (P31749 whole entry): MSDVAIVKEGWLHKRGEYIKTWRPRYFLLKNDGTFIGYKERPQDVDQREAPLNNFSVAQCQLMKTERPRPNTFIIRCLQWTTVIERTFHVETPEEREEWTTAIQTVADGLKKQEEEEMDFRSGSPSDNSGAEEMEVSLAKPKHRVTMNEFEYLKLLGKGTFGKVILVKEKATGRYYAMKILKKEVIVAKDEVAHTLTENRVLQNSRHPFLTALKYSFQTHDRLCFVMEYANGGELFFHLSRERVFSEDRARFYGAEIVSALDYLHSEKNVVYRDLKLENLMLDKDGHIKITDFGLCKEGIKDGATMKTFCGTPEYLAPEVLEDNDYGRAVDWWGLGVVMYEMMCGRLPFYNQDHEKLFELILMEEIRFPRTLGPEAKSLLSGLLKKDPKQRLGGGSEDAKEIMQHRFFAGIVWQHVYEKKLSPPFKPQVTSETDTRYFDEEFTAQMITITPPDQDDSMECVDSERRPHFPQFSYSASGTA
Chain of Casein kinase I isoform gamma-1 (Q9HCP0 whole entry, canonical isoform): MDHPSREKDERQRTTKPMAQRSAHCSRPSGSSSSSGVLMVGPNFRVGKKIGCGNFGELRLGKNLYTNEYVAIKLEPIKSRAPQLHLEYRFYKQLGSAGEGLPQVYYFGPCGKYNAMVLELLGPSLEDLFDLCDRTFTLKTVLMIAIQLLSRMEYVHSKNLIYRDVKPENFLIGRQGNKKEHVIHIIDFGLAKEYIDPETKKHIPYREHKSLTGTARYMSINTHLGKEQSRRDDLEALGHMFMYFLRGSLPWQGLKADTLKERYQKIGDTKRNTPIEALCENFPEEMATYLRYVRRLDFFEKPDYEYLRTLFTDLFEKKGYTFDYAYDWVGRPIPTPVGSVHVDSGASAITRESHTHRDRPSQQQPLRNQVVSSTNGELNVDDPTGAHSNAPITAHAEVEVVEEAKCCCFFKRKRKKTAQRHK

Regarding `COc1cc2ncnc(Oc3cccc(NC(=O)Nc4cc(C(C)(C)C(F)(F)F)on4)c3)c2cc1OC` [CEP-32496], the Kd in [1] was 0.03 µM (active); in [2], > 30 µM (inactive); in experiment [3] it was > 30 µM (inactive); in experiment [4] it was > 30 µM (inactive); in experiment [5] it was > 30 µM (inactive); in experiment [6], > 30 µM (inactive). In addition, the Kd in experiment [7], in [8], in experiment [9], in experiment [10], in experiment [11] and in experiment [12] was > 30 µM (inactive) each time. Further, the Kd (in [13]; on DNA topoisomerase 2-beta) was > 30 µM (inactive) throughout.
On to `Cc1cc(Nc2ncc(Cl)c(Nc3ccccc3S(=O)(=O)C(C)C)n2)c(OC(C)C)cc1C1CCNCC1` [CERITINIB], for which the Kd in experiment [1], in [2], in experiment [3], in experiment [4], in experiment [5] and in experiment [6] was > 30 µM (inactive) in each case. Besides, the Kd in experiment [7], in experiment [8], in [9], in [10], in experiment [11] and in [12] was > 30 µM (inactive) in each case. Also, the Kd (in experiment [13]; at DNA topoisomerase 2-beta) was > 30 µM (inactive) each time.
On to `COc1c(OCCCN2CCOCC2)ccc2c1N=C(NC(=O)c1cnc(N)nc1)N1CCN=C21` [COPANLISIB], for which the Kd in [1], in experiment [2], in experiment [3], in experiment [4], in [5] and in experiment [6] was > 30 µM (inactive) in each case. For the same compound, the Kd in experiment [7], in experiment [8], in experiment [9], in [10], in experiment [11] and in experiment [12] was > 30 µM (inactive) each time. Further, the Kd (in experiment [13]; on DNA topoisomerase 2-beta) was > 30 µM (inactive) throughout.
`COCC(=O)NC/C=C/c1ccc2ncnc(Nc3ccc(Oc4ccc(C)nc4)c(C)c3)c2c1` [CP-724714]: the Kd in experiment [1], in [2], in experiment [3], in experiment [4], in experiment [5] and in experiment [6] was > 30 µM (inactive) in each case. Also, the Kd in [7], in experiment [8], in experiment [9], in [10], in [11] and in [12] was > 30 µM (inactive) each time. Also, the Kd (in [13]; on DNA topoisomerase 2-beta) was > 30 µM (inactive) throughout.
As for `C#Cc1cccc(Nc2ncnc3cc(OC)c(OCCCCCCC(=O)NO)cc23)c1` [CUDC-101], the Kd in [1], in experiment [2], in experiment [3], in experiment [4], in experiment [5] and in [6] was > 30 µM (inactive) throughout. In addition, the Kd in experiment [7], in experiment [8], in experiment [9], in experiment [10], in experiment [11] and in experiment [12] was > 30 µM (inactive) each time. The Kd (in [13]; on DNA topoisomerase 2-beta) was > 30 µM (inactive) each time.
In the case of `CCS(=O)(=O)N1CCN(c2ccc(Nc3ncc(C(N)=O)c(NC4CC4)n3)cc2)CC1` [Cerdulatinib Hydrochloride], the Kd in [1], in experiment [2], in experiment [3], in experiment [4], in experiment [5] and in [6] was > 30 µM (inactive) throughout. Also, the Kd was > 30 µM (inactive) in [7]; 0.747 µM (active) in [8]; > 30 µM (inactive) in experiment [9]; > 30 µM (inactive) in experiment [10]; > 30 µM (inactive) in experiment [11]; > 30 µM (inactive) in [12]. The Kd (in experiment [13]; at DNA topoisomerase 2-beta) was > 30 µM (inactive) in each case.
`O=C(Nc1nc2cccc(-c3ccc(CN4CCS(=O)(=O)CC4)cc3)n2n1)C1CC1` [FILGOTINIB]: the Kd in experiment [1], in experiment [2], in experiment [3], in [4], in [5] and in experiment [6] was > 30 µM (inactive) in each case. Besides, the Kd in experiment [7], in [8], in experiment [9], in experiment [10], in [11] and in [12] was > 30 µM (inactive) in each case. The Kd (in [13]; at DNA topoisomerase 2-beta) was > 30 µM (inactive) each time.
For `Cc1cccc(-c2nn3c(c2-c2ccnc4ccc(C(N)=O)cc24)CCC3)n1` [GALUNISERTIB], the Kd in [1], in experiment [2], in experiment [3], in [4], in [5] and in [6] was > 30 µM (inactive) in each case. Also, the Kd in experiment [7], in experiment [8], in experiment [9], in experiment [10], in experiment [11] and in experiment [12] was > 30 µM (inactive) each time. Further, the Kd (in experiment [13]; at DNA topoisomerase 2-beta) was > 30 µM (inactive) each time.

As usually defined, the Kd is the concentration at which binding is half-saturated.
